The record followed here is ChEMBL document CHEMBL2380191, “Novel racemic tetrahydrocurcuminoid dihydropyrimidinone analogues as potent acetylcholinesterase inhibitors” (Bioorg Med Chem Lett, 2013).

The target in the experiment is Acetylcholinesterase (Electrophorus electricus, UniProt O42275). Description: Inhibition of electric eel AChE using acetylthiocholine iodide as substrate after 15 mins by Ellman's method. (In general: Ellman's reagent forms a yellow product with free thiols.)
Sequence of Acetylcholinesterase (O42275 whole entry): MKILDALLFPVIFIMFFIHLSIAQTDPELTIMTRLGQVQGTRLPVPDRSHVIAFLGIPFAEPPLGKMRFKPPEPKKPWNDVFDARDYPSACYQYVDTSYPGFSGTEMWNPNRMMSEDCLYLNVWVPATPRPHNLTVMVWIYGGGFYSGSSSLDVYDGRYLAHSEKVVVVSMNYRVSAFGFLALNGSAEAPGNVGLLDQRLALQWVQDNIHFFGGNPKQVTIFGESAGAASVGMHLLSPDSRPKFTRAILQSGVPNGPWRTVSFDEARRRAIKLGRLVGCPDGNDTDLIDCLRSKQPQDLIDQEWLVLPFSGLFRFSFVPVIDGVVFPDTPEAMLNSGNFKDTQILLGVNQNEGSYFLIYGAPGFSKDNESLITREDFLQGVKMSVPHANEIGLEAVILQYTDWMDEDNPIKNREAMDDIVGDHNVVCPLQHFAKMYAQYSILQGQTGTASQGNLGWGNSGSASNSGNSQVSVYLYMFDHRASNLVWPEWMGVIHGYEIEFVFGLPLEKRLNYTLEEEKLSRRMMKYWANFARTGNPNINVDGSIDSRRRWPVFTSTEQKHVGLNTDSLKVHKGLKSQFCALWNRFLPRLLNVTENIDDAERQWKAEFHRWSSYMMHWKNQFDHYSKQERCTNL
For `O=C(/C=C/c1ccc(O)cc1)CC(=O)/C=C/c1ccc(O)cc1` [BISDEMETHOXYCURCUMIN], it took 18.3 µM to reach half-maximal inhibition (IC50).

With `O=C(CCc1ccc(O)cc1)CC(=O)CCc1ccc(O)cc1` [LETESTUIANIN C], the half-maximal inhibitory concentration (IC50) stood at 7.89 µM. Compared with the last molecule, the IC50 is about 2.3-fold lower. As to `COc1cc(CCC(=O)C2=C(CCc3ccc(O)c(OC)c3)NC(=O)NC2c2ccc(O)c(OC)c2)ccc1O` (racemic), the midpoint of inhibition, the IC50, lay at 56.4 µM. Compared with the last molecule, the IC50 is about 7.1-fold higher. As to `COc1cc(CCC(=O)CC(=O)CCc2ccc(O)cc2)ccc1O` [TETRAHYDRODEMETHOXYCURCUMIN], the midpoint of inhibition, the IC50, lay at 20.6 µM. The molecule `COc1cc(/C=C/C(O)=C/C(=O)/C=C/c2ccc(O)cc2)ccc1O` [DEMETHOXYCURCUMIN] gave an IC50 of 37.7 µM. For `O=C1NC(CCc2ccc(O)cc2)=C(C(=O)CCc2ccc(O)cc2)C(c2ccccc2)N1` (racemic) the value was 2.04 µM; for `COc1cc(CCC(=O)C2=C(CCc3ccc(O)cc3)NC(=O)NC2c2ccccc2)ccc1O` (racemic), 10.7 µM. For `COc1ccc(C2NC(=O)NC(CCc3ccc(O)cc3)=C2C(=O)CCc2ccc(O)c(OC)c2)cc1` (racemic) the value was 5.78 µM; for `COc1ccc(C2NC(=O)NC(CCc3ccc(O)cc3)=C2C(=O)CCc2ccc(O)cc2)cc1` (racemic), 1.34 µM; for `COc1ccc(C2NC(=O)NC(CCc3ccc(O)c(OC)c3)=C2C(=O)CCc2ccc(O)c(OC)c2)cc1` (racemic), 14.3 µM. The same measure for `COc1ccc(C2NC(=O)NC(CCc3ccc(O)c(OC)c3)=C2C(=O)CCc2ccc(O)cc2)cc1` (racemic): 9.1 µM; for `COc1cc(CCC(=O)CC(=O)CCc2ccc(O)c(OC)c2)ccc1O` [TETRAHYDROCURCUMIN]: 41.2 µM. For the molecule `COc1cc(CCC2=C(C(=O)CCc3ccc(O)cc3)C(c3ccccc3)NC(=O)N2)ccc1O` (racemic), it took 20.9 µM to reach half-maximal inhibition (IC50). The same measure for `COc1cc(CCC(=O)C2=C(CCc3ccc(O)c(OC)c3)NC(=O)NC2c2ccccc2)ccc1O` (racemic): 36.3 µM; for `COc1cc(CCC(=O)C2=C(CCc3ccc(O)c(OC)c3)NC(=O)NC2c2ccc(O)cc2)ccc1O` (racemic): 17.3 µM.

A word on the IC50: it is the midpoint of a concentration-inhibition curve. Low readings indicate greater potency in that assay, high ones weaker potency in that assay.
